Results: publication PMC6390652 (Toxicological Sciences, 2018)
Where two headings read alike, the source gives them in different places.

Experiments:
[1] = test system: human GI microtissues (EpiIntestinal-FT, ileal); assay: Human GI microtissue barrier function assay; assay type: cell-based; conditions: for TEER (IC15): human microtissue, blinded, unit not given; for IC15: Homo sapiens
human GI microtissue [2] = assay: GI microtissue TEER response kinetics; assay type: cell-based
Caco-2 cells = conditions: for Caco-2 TEER IC15: Caco-2 transwell, top conc. 100 μM, unit inferred; for Caco-2 TEER IC15/Cmax: human
human GI microtissue [3] = assay: MTT viability assay; assay type: cell-based; conditions: Caco-2, read-out: MTT IC50
[4] = 96 h, read-out: Microtissue Exp 1 TEER IC15
[5] = read-out: Microtissue Exp 2 TEER IC15

| Compound | Caco-2 TEER IC15 (Caco-2 cells) [µM] | IC15 [1, 4] [µM] | IC15 [1, 5] [µM] | IC50 (human GI microtissue [3]) [µM] | also measured |
| --- | --- | --- | --- | --- | --- |
| CSCC[C@H](NC(=O)c1cc(NC[C@@H]2C[C@H](SC(=O)c3cccnc3)CN2)ccc1CCc1ccc(F)cc1)C(=O)OC(C)C [AZD3409] |  |  |  |  | TEER (IC15) [1]: 3.0E-06; TEER Diarrhea-Genic Prediction ([1]; scored with TEER IC15/Cmax ratio < 80): Active |
| CNC(=O)CN1CCC(Oc2cc3c(Nc4cccc(Cl)c4F)ncnc3cc2OC)CC1 [AZD8931] |  |  |  |  | TEER recovery after washout (human GI microtissue [2]; 100 μM for 3 days, then washout (first cycle)): quickly recovered TEER after washout; Effect on TEER during 3-day treatment period (human GI microtissue [2]; 100 μM, 3 days continuous, TEER measured daily): pronounced decrease in TEER; TEER recovery after second treatment cycle (human GI microtissue [2]; 100 μM, second treatment cycle): slower; TEER Diarrhea-Genic Prediction [1]: Active; TEER (IC15) [1]: 3.0E-9 |
| CN(C)C/C=C/C(=O)Nc1cc2c(Nc3ccc(F)c(Cl)c3)ncnc2cc1O[C@H]1CCOC1 [Afatinib] | 9 | 6 | 8.5 | 30 |  |
| COc1cc2nc(N(C)CCCNC(=O)C3CCCO3)nc(N)c2cc1OC (stereo not drawn) [Alfuzosin] |  | > 100 | > 100 | > 100 | Caco-2 TEER IC15/Cmax (Caco-2 cells): 3132 |
| CCCCc1oc2ccccc2c1C(=O)c1cc(I)c(OCCN(CC)CC)c(I)c1 [Amiodarone] |  | 40 |  |  |  |
| CCOC(=O)C1=C(COCCN)NC(C)=C(C(=O)OC)C1c1ccccc1Cl (stereo not drawn) [Amlodipine] | 30 | 15 | 10 | 45 |  |
| CNC(=O)c1ccccc1Sc1ccc2c(/C=C/c3ccccn3)n[nH]c2c1 [Axitinib] |  | 1 | > 100 |  |  |
| CC(C)C[C@H](NC(=O)[C@H](Cc1ccccc1)NC(=O)c1cnccn1)B(O)O [Bortezomib] | 1 | 1 | 1 | > 100 |  |
| CCCCCOC(=O)Nc1nc(=O)n([C@@H]2O[C@H](C)[C@@H](O)[C@H]2O)cc1F [Capecitabine] | > 100 | 1 | 1 | > 100 |  |
| COc1cc2c(c(OC)c1OC)-c1ccc(OC)c(=O)cc1[C@@H](NC(C)=O)CC2 [Colchicine] |  | > 100 | 1 |  |  |
| C[C@@H](Oc1cc(-c2cnn(C3CCNCC3)c2)cnc1N)c1c(Cl)ccc(F)c1Cl [Crizotinib] | 8 | 9.5 | 9.5 | 22 |  |
| C[C@@H]1C[C@H]2[C@@H]3CCC4=CC(=O)C=C[C@]4(C)[C@@]3(F)[C@@H](O)C[C@]2(C)[C@@]1(O)C(=O)CO [Dexamethasone] | > 100 | > 100 | > 100 | > 100 |  |
| Cc1cccc([C@H](C)c2cnc[nH]2)c1C [Dexmedetomidine] |  | 40 | 40 | > 100 | Caco-2 TEER IC15/Cmax (Caco-2 cells): 21138 |
| CC(=O)Oc1cccc2c1C(=O)c1c(OC(C)=O)cc(C(=O)O)cc1C2=O [Diacerein] | > 100 | 40 | 40 | 65 |  |
| CC(=O)O[C@@]12CO[C@@H]1C[C@H](O)[C@@]1(C)C(=O)[C@H](O)C3=C(C)[C@@H](OC(=O)[C@H](O)[C@@H](NC(=O)OC(C)(C)C)c4ccccc4)C[C@@](O)([C@@H](OC(=O)c4ccccc4)[C@H]21)C3(C)C [Docetaxel] | > 100 | 40 | 40 | 65 |  |
| CN(CCOc1ccc(NS(C)(=O)=O)cc1)CCc1ccc(NS(C)(=O)=O)cc1 [Dofetilide] | > 100 | > 100 | > 100 | > 100 |  |

| Compound | Caco-2 TEER IC15 (Caco-2 cells) [µM] | IC15 [1, 4] [µM] | IC15 [1, 5] [µM] | IC50 (human GI microtissue [3]) [µM] | also measured |
| --- | --- | --- | --- | --- | --- |
| CC(C)(C)NC(=O)[C@H]1CC[C@H]2[C@@H]3CC[C@H]4NC(=O)C=C[C@]4(C)[C@H]3CC[C@]12C [Finasteride] | > 100 | 80 | > 100 | > 100 |  |
| O=C(NCC1CCCCN1)c1cc(OCC(F)(F)F)ccc1OCC(F)(F)F (stereo not drawn) [Flecainide] | > 100 | 80 | > 100 | > 100 |  |
| CO[C@H]1O[C@H](COS(=O)(=O)O)[C@@H](O[C@@H]2O[C@@H](C(=O)O)[C@@H](O[C@H]3O[C@H](COS(=O)(=O)O)[C@@H](O[C@@H]4O[C@H](C(=O)O)[C@@H](O[C@H]5O[C@H](COS(=O)(=O)O)[C@@H](O)[C@H](O)[C@H]5NS(=O)(=O)O)[C@H](O)[C@H]4O)[C@H](OS(=O)(=O)O)[C@H]3NS(=O)(=O)O)[C@H](O)[C@H]2OS(=O)(=O)O)[C@H](O)[C@H]1NS(=O)(=O)O [Fondaparinux] | > 100 | > 100 | > 100 | > 100 |  |
| O=C(CCCN1CCC(O)(c2ccc(Cl)cc2)CC1)c1ccc(F)cc1 [Haloperidol] | 30 | 22 | 8 |  |  |
| CC(=O)[C@]1(O)Cc2c(O)c3c(c(O)c2[C@@H](O[C@H]2C[C@H](N)[C@H](O)[C@H](C)O2)C1)C(=O)c1ccccc1C3=O [Idarubicin] | 8 | 4.3 | 2.5 | 10 |  |
| Cc1ccc(NC(=O)c2ccc(CN3CCN(C)CC3)cc2)cc1Nc1nccc(-c2cccnc2)n1 [Imatinib] |  | 7 | 8 |  |  |
| CC(C)NCC(O)c1ccc(O)c(O)c1 (stereo not drawn) [Isoprenaline] | > 100 | > 100 | > 100 | > 100 |  |
| CNCCCC12CCC(c3ccccc31)c1ccccc12 [Maprotiline] |  | 6 | 9 |  |  |
| COc1c2occc2cc2ccc(=O)oc12 [Methoxsalen] |  | 150 | 150 | 150 |  |
| CC(C)(C)NCC(O)COc1cccc2c1CC(O)C(O)C2 (stereo not drawn) [Nadolol] | > 100 | > 100 | > 100 | > 100 |  |
| CCCCC[C@H](O)/C=C/[C@@H]1[C@H]2C/C(=C/CCCC(=O)O)O[C@H]2C[C@H]1O [Prostacyclin] | > 100 | > 100 | > 100 | > 100 |  |
| C=C[C@H]1C[N@@]2CC[C@H]1C[C@@H]2[C@@H](O)c1ccnc2ccc(OC)cc12 [Quinidine] |  | 30 | 30 | > 100 |  |
| CNC(=O)c1cc(Oc2ccc(NC(=O)Nc3ccc(Cl)c(C(F)(F)F)c3)cc2)ccn1 [Sorafenib] | 15 | 7.9 | 7.9 | 65 |  |
| C=CC[C@@H]1/C=C(\C)C[C@H](C)C[C@H](OC)[C@H]2O[C@@](O)(C(=O)C(=O)N3CCCC[C@H]3C(=O)O[C@H](/C(C)=C/[C@@H]3CC[C@@H](O)[C@H](OC)C3)[C@H](C)[C@@H](O)CC1=O)[C@H](C)C[C@@H]2OC [Tacrolimus] | 30 | 30 | 40 | 55 |  |
| C[C@]12C=CC(=O)C=C1CC[C@H]1[C@@H]3C[C@@H](O)[C@](O)(C(=O)CO)[C@@]3(C)C[C@H](O)[C@@]12F [Triamcinolone] | > 100 | > 100 | > 100 | > 100 |  |
| COc1ccc(CCN(C)CCCC(C#N)(c2ccc(OC)c(OC)c2)C(C)C)cc1OC (stereo not drawn) [Verapamil] |  | 40 | 45 |  |  |
